Measurements: paper PMC12539213, “Molecular targeting of the deubiquitinase USP14 to circumvent cisplatin resistance in ovarian carcinoma and identification of novel inhibitors” (Cancer Drug Resistance, 2025)

What was measured:
[1] = target: T1, USP14 (ubiquitin-specific protease 14) (Homo sapiens, UniProt P54578); test: Ub-Rho110-G hydrolysis assay, recombinant USP14 with Ub-VS-treated […] proteasome, dose-response; assay type: biochemical
T1 construct: USP14 (6His-tagged), 64-0018-050, Ubiquigent; with Ub-VS-treated human 26S proteasome
T1 sequence (P54578 whole entry): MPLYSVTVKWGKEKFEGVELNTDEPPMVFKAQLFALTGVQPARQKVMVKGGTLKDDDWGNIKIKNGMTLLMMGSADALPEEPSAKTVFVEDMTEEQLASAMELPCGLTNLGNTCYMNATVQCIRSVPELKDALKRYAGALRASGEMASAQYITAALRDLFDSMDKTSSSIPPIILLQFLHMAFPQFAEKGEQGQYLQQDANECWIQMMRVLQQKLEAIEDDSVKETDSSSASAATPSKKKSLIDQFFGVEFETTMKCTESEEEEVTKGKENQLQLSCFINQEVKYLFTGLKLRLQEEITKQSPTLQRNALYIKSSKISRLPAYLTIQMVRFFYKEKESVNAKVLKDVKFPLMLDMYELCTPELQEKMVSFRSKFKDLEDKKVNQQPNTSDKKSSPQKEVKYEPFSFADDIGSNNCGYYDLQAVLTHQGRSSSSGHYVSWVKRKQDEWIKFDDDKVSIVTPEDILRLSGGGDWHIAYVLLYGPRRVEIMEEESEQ

[2] = target: T1, USP14 (ubiquitin-specific protease 14); test: Ub-Rho110-G hydrolysis assay, positive control at […] ([…] inhibition) and […] ([…]); also HA-Ub-VS labeling in IGROV-1/Pt1 cells; assay type: biochemical

CC1=NN(c2cccc(NC(=O)c3ccccc3Cn3ccnc3)c2)C(=O)C1 [ARN12502] showed an IC50 [1] of 18.4 ± 2.2 µM.
In the case of Cc1cc(C(=O)CN2CCCCC2)c(C)n1-c1ccc(Cl)cc1 [IU1-47], the IC50 [2] is reported as ~ 200 nM.
